{"source": "paper PMC6550521", "about": "“Stress-Induced Changes in the Lipid Microenvironment of β-(1,3)-D-Glucan Synthase Cause Clinically Important Echinocandin Resistance in Aspergillus fumigatus” (mBio, 2019)", "key": {"A. fumigatus RG101 [1]": {"system": "A. fumigatus RG101", "assay_type": "cell-based, Aspergillus fumigatus", "protocol": "The following drugs (supplier) were tested: caspofungin (Merck & Co., Inc.), micafungin (Astellas Pharma US, Inc.), anidulafungin (Pfizer Inc.), itraconazole (Sigma-Aldrich), voriconazole (Pfizer Inc.), and amphotericin B (Sigma-Aldrich). In addition, rezafungin and ibrexafungerp were obtained from Cidara Therapeutics and Scynexis Inc., respectively."}, "[2]": {"system": "lipid microenvironment of glucan synthase of clinical isolates 117, 2770 and 32458", "experiment": "Lipid analysis (LC-MS/MS) of partially purified glucan synthase", "assay_type": "cell-based, Aspergillus fumigatus", "conditions": "isolates 117, 2770, 32458 treated with CAS", "protocol": "(§1) Approximately 10 μg/ml of partially purified glucan synthase of RG101 and clinical isolates was analyzed for lipid content by LC-MS/MS ([50]) at the Lipidomics Shared Resource of the Medical University of South Carolina (http://www.hollingscancercenter.org/research/shared-resources/lipidomics/index.html)."}, "[3]": {"system": "lipid microenvironment of glucan synthase of RG101", "experiment": "Lipid analysis (LC-MS/MS) of partially purified glucan synthase", "assay_type": "cell-based, Aspergillus fumigatus", "conditions": "RG101 grown with CAS 1 μg/ml", "protocol": "as §1"}, "[4]": {"system": "reactive oxygen species (ROS) in A. fumigatus ATCC 13073", "experiment": "ROS production, DCFDA fluorescence assay", "assay_type": "cell-based, Aspergillus fumigatus", "conditions": "1 μg/ml, 1 h exposure, compared with other echinocandins", "protocol": "(§2) ROS production in mycelia was measured using a protocol previously described by Blatzer et al. ([51]) with a few changes. Suspensions of 10^4 spores/ml of ATCC 13073 and RG101 were grown in static culture in complete supplement mixture (CSM) medium for 16 h in a 96-well microplate at 37°C. After incubation, the mycelia were washed once with CSM, 10 μM 2′,7′–dichlorofluorescin diacetate (DCFDA) dye was added, and cells were incubated in the dark at 37°C for 30 min. Cells were then washed three times with phosphate-buffered saline (PBS), and a final concentration of 1 μg/ml of each echinocandin in CSM medium was added to different wells. Fluorescence intensity (excitation at 485 nm and emission at 530 nm) was measured for 1 h in a microplate reader (Tecan Infinite M200 Pro). Mycelia stained with DCFDA without any drug were used as a control."}, "[5]": {"system": "reactive oxygen species (ROS) in A. fumigatus RG101", "experiment": "ROS production, DCFDA fluorescence assay", "assay_type": "cell-based, Aspergillus fumigatus", "conditions": "1 μg/ml, 1 h exposure, DCFDA, compared with other echinocandins", "protocol": "as §2"}, "A. fumigatus RG101 [6]": {"system": "A. fumigatus RG101", "experiment": "Acute pulmonary aspergillosis model in neutropenic DBA/2 mice, lung fungal burden by qPCR", "assay_type": "in vivo, Aspergillus fumigatus", "protocol": "Resistance of RG101 to CAS in vivo was tested in an acute pulmonary aspergillosis model. Thirty inbred DBA/2 mice were rendered neutropenic and infected with 1 × 10^6 RG101 conidia intratracheally. The mice were then treated with CAS (5 mg/kg of body weight), MFG (5 mg/kg), or vehicle daily for 5 days, and lung burdens were determined using quantitative PCR (qPCR). Details of the experiment are provided in Text S1 in the supplemental material.\nAll animal experiments performed were approved by the Rutgers University Institutional Animal Care and Use Committee. Thirty female DBA/2 mice [The Jackson Laboratory, Bar Harbor, ME] were used in the experiment. The mice were housed in cages equipped with HEPA filters and were allowed free access to food and water. To establish neutropenia, mice were immunosuppressed with cyclophosphamide on days -4 (150 mg/kg), -1 and +2 (100 mg/kg) intraperitoneally (ip) and hydrocortisone on day -1 (200 mg/kg) via subcutaneous injection (sc). The animals were given prophylaxis sc ceftazidime (50 mg/kg) on all days to prevent secondary bacterial infections. A. fumigatus RG101 was streaked out from a frozen glycerol stock and cultured on Potato dextrose agar (PDA) slant for 2 days. The spores were harvested in phosphate-buffered saline (PBS) with 0.05% (v/v) Tween 20 and counted in a hemocytometer. The mice were briefly anesthetized IP Ketamine (65 mg/kg)/Xylazine (5 mg/kg) and infected with 1×10^6 spores of RG101 in 25 µL volume via intratracheal instillation. The 30 RG101 infected mice were randomized into following treatment arms for IP treatment: vehicle, CAS (5 mg/kg), and MFG (5 mg/kg). The first treatment was given at 3 h post infection (PI) and continued daily treatments were administered. On day 5 PI, mice were humanely euthanized via CO2 narcosis. Lungs were excised and homogenized in 1 ml of sterile PBS using a 2 ml tube containing ceramic spheres by MP Biomedicals (116913500). Tissue was then homogenized in 20 s bursts in a mini bead beater (MP FastPrep-24) followed by cooling on ice. DNA was then isolated from an aliquot of the lung homogenate (100 μl) using the QIAamp DNA Mini Kit by Qiagen (51304) and analyzed by real-time quantitative PCR (qPCR) using primers specific for A. fumigatus 18S rRNA genes (Wiederhold et al 2004)."}, "[7]": {"biological_target": "β-(1,3)-D-glucan synthase of RG101 (Aspergillus fumigatus, UniProt Q4WLT4)", "sequence (Q4WLT4 1-1904)": "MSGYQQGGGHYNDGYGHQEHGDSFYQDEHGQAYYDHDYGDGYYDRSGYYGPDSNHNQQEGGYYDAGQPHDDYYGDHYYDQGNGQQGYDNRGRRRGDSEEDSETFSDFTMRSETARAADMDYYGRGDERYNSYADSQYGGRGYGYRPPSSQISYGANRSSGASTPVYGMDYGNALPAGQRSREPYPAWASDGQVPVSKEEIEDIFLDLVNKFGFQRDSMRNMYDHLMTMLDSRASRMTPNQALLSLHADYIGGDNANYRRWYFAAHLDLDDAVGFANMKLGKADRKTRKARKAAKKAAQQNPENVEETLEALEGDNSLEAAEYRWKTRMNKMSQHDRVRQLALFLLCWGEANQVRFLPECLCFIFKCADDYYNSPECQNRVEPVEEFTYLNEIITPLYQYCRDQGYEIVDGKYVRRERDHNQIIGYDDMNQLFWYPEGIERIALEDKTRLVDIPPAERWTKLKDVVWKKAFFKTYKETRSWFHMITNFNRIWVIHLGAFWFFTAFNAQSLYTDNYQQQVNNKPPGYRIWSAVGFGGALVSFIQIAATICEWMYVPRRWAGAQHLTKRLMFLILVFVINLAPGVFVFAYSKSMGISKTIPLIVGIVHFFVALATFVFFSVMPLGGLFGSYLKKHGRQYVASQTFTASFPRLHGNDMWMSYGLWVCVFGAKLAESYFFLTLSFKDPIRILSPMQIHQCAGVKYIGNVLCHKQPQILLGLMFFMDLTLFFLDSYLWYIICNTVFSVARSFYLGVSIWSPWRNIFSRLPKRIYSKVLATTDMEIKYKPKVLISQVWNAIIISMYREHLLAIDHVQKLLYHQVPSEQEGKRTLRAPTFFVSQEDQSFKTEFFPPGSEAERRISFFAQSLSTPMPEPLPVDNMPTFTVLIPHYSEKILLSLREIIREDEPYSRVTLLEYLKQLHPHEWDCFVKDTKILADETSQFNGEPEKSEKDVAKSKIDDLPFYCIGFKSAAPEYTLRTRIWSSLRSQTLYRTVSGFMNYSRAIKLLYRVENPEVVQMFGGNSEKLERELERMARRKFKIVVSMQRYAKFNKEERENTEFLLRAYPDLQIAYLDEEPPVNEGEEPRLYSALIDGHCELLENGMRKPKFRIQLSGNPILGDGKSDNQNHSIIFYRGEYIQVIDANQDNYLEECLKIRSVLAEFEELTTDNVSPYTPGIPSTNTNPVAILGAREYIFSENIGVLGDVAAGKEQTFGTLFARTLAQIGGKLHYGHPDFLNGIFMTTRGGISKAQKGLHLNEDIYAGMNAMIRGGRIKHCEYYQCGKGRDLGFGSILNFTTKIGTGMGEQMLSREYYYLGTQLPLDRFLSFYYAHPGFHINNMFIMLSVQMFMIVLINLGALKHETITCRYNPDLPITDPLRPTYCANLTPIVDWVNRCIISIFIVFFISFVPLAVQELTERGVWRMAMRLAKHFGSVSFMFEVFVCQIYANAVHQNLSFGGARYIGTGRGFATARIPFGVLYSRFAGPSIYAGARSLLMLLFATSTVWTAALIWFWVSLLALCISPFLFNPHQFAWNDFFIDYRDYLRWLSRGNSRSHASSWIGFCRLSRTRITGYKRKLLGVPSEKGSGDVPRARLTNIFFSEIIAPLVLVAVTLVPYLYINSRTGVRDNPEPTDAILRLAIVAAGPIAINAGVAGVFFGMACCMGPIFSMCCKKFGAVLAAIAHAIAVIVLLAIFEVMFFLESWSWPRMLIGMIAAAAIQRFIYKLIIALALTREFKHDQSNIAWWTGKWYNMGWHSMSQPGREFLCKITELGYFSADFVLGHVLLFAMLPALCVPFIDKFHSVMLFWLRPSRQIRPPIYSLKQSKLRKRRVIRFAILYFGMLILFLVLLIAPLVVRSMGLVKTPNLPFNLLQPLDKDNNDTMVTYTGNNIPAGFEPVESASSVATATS", "experiment": "Glucan synthase kinetic inhibition assay, enzyme from RG101", "assay_type": "biochemical", "protocol": "ATCC 13073 or RG101 was grown in liquid YPD medium at 37°C for 16 h. Partially purified glucan synthase was isolated by the product entrapment method, as previously described ([21]). Sensitivity to echinocandin drugs was measured by glucan synthase assay, using a 96-well multiscreen high-throughput screen filtration system (Millipore Corporation, Bedford, MA) in a final volume of 100 μl. Inhibition of the enzyme by the drug was analyzed after incubation of the enzyme with a radioactive substrate over a broad range of concentrations (0 to 10,000 ng/ml) of echinocandins for 1 h at room temperature. Radioactivity from the enzyme product, β-(1,3)-D-glucan, was measured. Inhibition profiles were determined using a sigmoidal response curve fitting algorithm with GraphPad Prism software (v 7.04).\nTo study the effect of lipids on the enzyme, dihydrosphingosine, phytosphingosine, or phytoceramide C2 (Sigma-Aldrich D6783, P2795, and C8105, respectively) was added directly to the assay mixture and coincubated with an echinocandin for 1 h at room temperature."}, "[8]": {"system": "cell wall glucan and chitin of RG101", "experiment": "Cell wall carbohydrate analysis (mass spectrometry, calcofluor white)", "assay_type": "cell-based, Aspergillus fumigatus", "conditions": "CAS 4 μg/ml", "protocol": "Strains ATCC 13073 and RG101 were grown in the absence and presence of CAS (4 μg/ml) in 6-well microtiter plates containing yeast extract-peptone-dextrose (YPD) broth for 22 h at 37°C. The cells were then lysed using a French press. The broken cell wall sample was processed for chemical analysis using mass spectrometry at the Complex Carbohydrate Research Center (CCRC) at the University of Georgia, Athens, GA."}}, "note": "Several values for one entry are separate records, joined by “and”; a condition that tells them apart may be missing. Equal values may be shown once."}
{"smiles": "CC[C@H](C)C[C@H](C)CCCCCCCCC(=O)N[C@H]1C[C@@H](O)[C@@H](NCCN)NC(=O)[C@@H]2[C@@H](O)CCN2C(=O)[C@H]([C@H](O)CCN)NC(=O)[C@H]([C@H](O)[C@@H](O)c2ccc(O)cc2)NC(=O)[C@@H]2C[C@@H](O)CN2C(=O)[C@H]([C@@H](C)O)NC1=O", "note": "[CAS, caspofungin]", "values": [{"measurement": "Breakthrough growth concentrations, RG101", "setting": "A. fumigatus RG101 [1]; 24 h", "result": "0.5 to 8", "unit": "µg/mL"}, {"measurement": "MEC 2 (rosettes form again), RG101", "setting": "A. fumigatus RG101 [1]; 24 h", "result": 16, "unit": "µg/mL"}, {"measurement": "Susceptibility phenotype of RG101", "setting": "A. fumigatus RG101 [1]; 24 h", "result": "resistant"}, {"measurement": "Growth phenotype of RG101 at 30 h", "setting": "A. fumigatus RG101 [1]; 30 h, all concentrations tested (0.25 to 8 μg/ml)", "result": "full breakthrough"}, {"measurement": "Abundance of DhSph and PhSph in enzyme preparations of CAS-treated clinical isolates", "setting": "[2]", "result": "significantly increased abundance"}, {"measurement": "Increase in abundance of dihydrosphingosine (DhSph), CAS-treated vs untreated", "setting": "[3]", "result": "2 fold and 3 fold"}, {"measurement": "Increase in abundance of phytoceramide (C24), CAS-induced vs uninduced", "setting": "[3]", "result": 3, "unit": "fold"}, {"measurement": "Increase in abundance of phytosphingosine (PhSph), CAS-treated vs untreated", "setting": "[3]", "result": 10, "unit": "fold"}, {"measurement": "ROS levels induced in ATCC 13073", "setting": "[4]", "result": "highest levels"}, {"measurement": "ROS levels induced in RG101", "setting": "[5]", "result": "highest levels"}, {"measurement": "Decrease in lung burden versus vehicle-treated group", "setting": "A. fumigatus RG101 [6]; RG101, 5 mg/kg daily for 5 days", "result": "No significant differences"}, {"measurement": "Average fungal lung burden", "setting": "A. fumigatus RG101 [6]; RG101 intratracheal, 5 mg/kg daily IP for 5 days, qPCR", "result": 22.6, "unit": "ng fungal DNA per lung"}, {"measurement": "Loss of sensitivity (IC50 shift) of glucan synthase from RG101 grown with CAS versus without", "setting": "[7]; RG101 grown in presence vs absence of CAS", "result": 4, "unit": "log orders"}, {"measurement": "IC50", "setting": "[7]; enzyme from RG101 grown at 4 μg/ml CAS", "result": "> 9.15", "unit": "µM"}, {"measurement": "Chitin levels in RG101 upon CAS exposure", "setting": "[8]; MS and calcofluor white", "result": "no significant increase"}, {"measurement": "Cell wall glucan content in RG101 treated with CAS", "setting": "[8]; mass spectroscopy", "result": "no reduction"}]}
